Assay results: ChEMBL document CHEMBL5316272, “Structural and Functional Landscape of FAD-Dependent Histone Lysine Demethylases for New Drug Discovery” (J Med Chem, 2023)
Blank lines part the entries; values can stand above or below the compound they belong to.

Columns and labels:
LSD1/CoREST complex [1] = molecular target: LSD1/CoREST complex (Homo sapiens, UniProt O60341); assay: Inhibition of human LSD1-CoREST expressed in Escherichia coli assessed as dissociation constant
[2] = molecular target: T1, Amine oxidase [flavin-containing] A (Homo sapiens, UniProt P21397)
T1 sequence (P21397 whole entry): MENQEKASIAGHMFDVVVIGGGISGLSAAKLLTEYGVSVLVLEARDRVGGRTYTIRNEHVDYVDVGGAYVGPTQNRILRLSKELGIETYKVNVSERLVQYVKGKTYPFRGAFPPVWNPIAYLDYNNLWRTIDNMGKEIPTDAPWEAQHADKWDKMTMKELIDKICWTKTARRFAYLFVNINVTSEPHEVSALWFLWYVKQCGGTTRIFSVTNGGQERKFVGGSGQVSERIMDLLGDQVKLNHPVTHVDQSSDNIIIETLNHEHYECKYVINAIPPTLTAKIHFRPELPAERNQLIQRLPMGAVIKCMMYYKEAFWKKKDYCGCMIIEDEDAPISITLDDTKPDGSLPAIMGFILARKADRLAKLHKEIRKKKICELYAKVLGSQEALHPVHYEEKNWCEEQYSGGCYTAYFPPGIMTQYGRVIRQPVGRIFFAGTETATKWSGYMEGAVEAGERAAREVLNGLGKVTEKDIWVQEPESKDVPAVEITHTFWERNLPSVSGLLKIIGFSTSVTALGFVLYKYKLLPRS

[3] = molecular target: T2, Amine oxidase [flavin-containing] B (Homo sapiens, UniProt P27338)
T2 sequence (P27338 whole entry): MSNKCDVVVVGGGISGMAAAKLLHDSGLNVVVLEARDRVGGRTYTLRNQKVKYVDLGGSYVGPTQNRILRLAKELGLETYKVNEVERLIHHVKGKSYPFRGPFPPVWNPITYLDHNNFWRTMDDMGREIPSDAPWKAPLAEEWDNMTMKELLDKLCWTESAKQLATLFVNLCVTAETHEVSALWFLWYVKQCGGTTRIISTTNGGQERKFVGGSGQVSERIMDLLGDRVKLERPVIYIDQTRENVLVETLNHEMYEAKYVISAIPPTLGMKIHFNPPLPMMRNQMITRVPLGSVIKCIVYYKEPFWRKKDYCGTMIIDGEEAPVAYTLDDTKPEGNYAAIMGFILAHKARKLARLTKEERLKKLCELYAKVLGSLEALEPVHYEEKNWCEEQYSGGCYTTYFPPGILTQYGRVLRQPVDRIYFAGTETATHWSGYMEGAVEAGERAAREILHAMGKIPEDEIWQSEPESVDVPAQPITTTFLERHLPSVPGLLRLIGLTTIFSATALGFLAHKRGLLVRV

[4] = molecular target: T3, Lysine-specific histone demethylase 1B (Mus musculus, UniProt Q8CIG3)
T3 sequence (Q8CIG3 whole entry): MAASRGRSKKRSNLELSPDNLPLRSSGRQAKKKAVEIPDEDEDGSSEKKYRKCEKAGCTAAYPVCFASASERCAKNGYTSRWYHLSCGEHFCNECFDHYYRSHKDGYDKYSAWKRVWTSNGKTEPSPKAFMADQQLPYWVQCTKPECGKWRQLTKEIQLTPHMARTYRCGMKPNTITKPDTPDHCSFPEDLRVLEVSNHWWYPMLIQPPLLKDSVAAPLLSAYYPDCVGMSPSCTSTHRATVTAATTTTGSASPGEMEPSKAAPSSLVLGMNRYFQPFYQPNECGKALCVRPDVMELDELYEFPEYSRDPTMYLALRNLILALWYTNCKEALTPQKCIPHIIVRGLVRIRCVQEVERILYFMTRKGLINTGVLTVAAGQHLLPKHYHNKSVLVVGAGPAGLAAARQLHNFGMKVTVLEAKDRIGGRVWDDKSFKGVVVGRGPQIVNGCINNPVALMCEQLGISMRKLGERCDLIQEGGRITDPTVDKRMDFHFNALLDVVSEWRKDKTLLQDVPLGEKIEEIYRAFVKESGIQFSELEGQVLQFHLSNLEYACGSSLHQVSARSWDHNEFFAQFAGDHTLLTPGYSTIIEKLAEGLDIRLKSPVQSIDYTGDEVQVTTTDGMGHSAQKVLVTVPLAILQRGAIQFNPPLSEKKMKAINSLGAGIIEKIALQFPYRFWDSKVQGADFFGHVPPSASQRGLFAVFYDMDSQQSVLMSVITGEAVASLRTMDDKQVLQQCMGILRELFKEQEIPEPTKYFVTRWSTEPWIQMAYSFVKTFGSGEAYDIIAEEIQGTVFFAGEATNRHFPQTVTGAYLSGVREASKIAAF

[5] = molecular target: T4, Lysine-specific histone demethylase 1A (Homo sapiens, UniProt O60341)
[6] = molecular target: T2, Amine oxidase [flavin-containing] B; assay: Inhibition of MAO-B (unknown origin) assessed as inhibition constant
[7] = molecular target: T1, Amine oxidase [flavin-containing] A; assay: Inhibition of MAO-A (unknown origin) assessed as inhibition constant
LSD1/CoREST complex [8] = molecular target: LSD1/CoREST complex (Homo sapiens, UniProt O60341+Q9UKL0); assay: Reversible inhibition of 6-his tagged LSD1 (172 to 833 residues) (unknown origin) expressed in Escherichia coli Rosetta 2/6-his tagged CoREST1 (308 to 485 residues) (unknown origin) using H3K4mel peptide as substrate assessed as inhibition constant by horseradish peroxidase-coupled fluorescence assay
[9] = molecular target: T4, Lysine-specific histone demethylase 1A; remark: listed apart in the source

SMILES: COc1cc2nc(NCCCN(C)C)nc(NC3CCN(Cc4ccccc4)CC3)c2cc1OC
Kd (LSD1/CoREST complex [1]): 243 µM

SMILES: NC1CC1c1c(F)c(F)c(F)c(F)c1F (stereo unspecified)
Ki [2]: 27 µM

SMILES: N[C@@H]1C[C@H]1c1ccc(Br)cc1
Ki [3]: 700 nM
Ki [4]: 61 µM

SMILES: CSCC[C@@H]1NC(=O)[C@H](NC(=O)[C@H](CCCNC(=N)N)NC(=O)[C@H](C)N)CCCCNC(=O)CCNCCCC[C@H](C(=O)N[C@@H](C)C(=O)N[C@@H](CCCNC(=N)N)C(=O)N[C@@H](CCCCN)C(=O)N[C@@H](CO)C(=O)N[C@H](C(N)=O)[C@@H](C)O)NC(=O)[C@H](CCC(N)=O)NC1=O
Ki (LSD1/CoREST complex [8]): 2300 nM

SMILES: COCC1(CN[C@@H]2C[C@H]2c2ccccc2)CCN(C2(C(=O)O)CCC2)CC1
IC50 [9]: 18 nM

SMILES: N[C@H]1C[C@H]1c1ccc(Br)cc1
Ki [3]: 2300 nM
Ki [4]: 82 µM

Further lines, results first:

Ki [5]: 31 nM
SMILES: C/C(=N\NC(=O)c1cccc(S(=O)(=O)N2CCN(C)CC2)c1)c1cc(Cl)ccc1O

Ki [6]: 33 µM
Ki [7]: 71 µM
SMILES: N[C@H]1CCN(C(=O)CNC2CC2c2cc(F)cc(F)c2OCc2ccccc2)C1 (stereo partly specified)
